Assays:
Arabidopsis seeds = assay: Seed germination with ABA treatment; format: in vivo
Procedure: To test ABA sensitivity at germination, over 200 seeds per experiment were sown on MS medium in the presence or absence of […] (Sigma-Aldrich, St Louis, Mo., USA). After 2 d at 4° C., seeds were germinated and grown under 16-hour-light (23° C.)/8-hour-dark (21° C.) cycles. Germination was examined daily with a microscope (Leica MZ6; Leica, Solms, Germany), and seedlings were photographed after 7 d. For post-germination growth assays, seeds were germinated on MS medium for 4 d, followed by transfer to MS medium or MS medium supplemented with […] for 7 d before photography and root measurements.

ACBP2pro:GUS = assay: Histochemical GUS assay during germination; format: in vivo, Arabidopsis; conditions: ABA treatment
Procedure: Histochemical GUS assays were carried out using 5 bromo-4-chloro-3-indolyl-b-D-glucuronide (X-Glue) according to Liu et al., Plant Cell, 16: 5-20 (2004). Plant samples were immersed and vacuum filtrated in the GUS staining solution for 30 min (100 mM sodium phosphate buffer, pH 7.0, 0.1% Triton X-100, 2 mM potassium ferricyanide, 2 mM potassium ferrocyanide, 1 mg/mL 5 bromo-4-chloro-3-indolyl-β-D-glucuronide), incubated and observed over a period ranging from 3 to 16 h at 37° C. Subsequently, samples were cleared in 70% ethanol and photographed.

ACBP2 = assay: qRT-PCR of ACBP2 expression after ABA treatment; format: in vivo, Arabidopsis; conditions: 12-day-old seedlings, ABA (100 µM), continuous white light
Procedure: TRIzol® reagent was also used for RNA extraction of 12-day-old Arabidopsis seedlings subject to treatment by 100 μM ABA or drought for the various times (0, 1, 3, 6 and 24 h) under continuous white light. First-strand was synthesized using the Superscript First-Strand Synthesis System (Invitrogen). QRT-PCR was performed using StepOne Plus (Applied Biosystems) and FastStart Universal SYBR Green Master (Roche). Transcript changes were analyzed according to Schmittgen and Livak (Nat. Protoc. 3:1101-1108 (2008) from three independent experiments.
To determine the effect of ABA treatment on ACBP2 expression, the expression of ACBP2 was examined by Real-time quantitative PCR (qRT-PCR) using primers ML1122 and ML1123 (SEQ ID NOs: 1 and 2) in 12-day-old seedlings before and after ABA treatment under continuous white light. qRT-PCR was performed using StepOne Plus (Applied Biosystems) and FastStart Universal SYBR Green Master (Roche). Transcript changes were analyzed according to Schmittgen and Livak (Nat. Protoc. 3: 1101-1108 (2008) from three independent experiments.

CC1=CC(=O)CC(C)(C)[C@@]1(O)/C=C/C(C)=C\C(=O)O [ABA, Abscisic acid]
seed germination (Arabidopsis seeds): suppressed germination | GUS expression as germination progressed (ACBP2pro:GUS): retained GUS expression | ACBP2 expression (qRT-PCR) (ACBP2): significant induction
